From ChEMBL document CHEMBL1131345, “Synthesis of N-(1-ethyl-4-methylhexahydro-1,4-diazepin-6-yl)nicotinamides and their affinities for 5-HT3 and dopamine D2 receptors” (Bioorg Med Chem Lett, 1998) come the findings set out here.

The target of assay [1] is T1, Serotonin 3 (5-HT3) receptor (Rattus norvegicus, UniProt P35563+Q9JJ16).
T1 sequence (P35563 whole entry): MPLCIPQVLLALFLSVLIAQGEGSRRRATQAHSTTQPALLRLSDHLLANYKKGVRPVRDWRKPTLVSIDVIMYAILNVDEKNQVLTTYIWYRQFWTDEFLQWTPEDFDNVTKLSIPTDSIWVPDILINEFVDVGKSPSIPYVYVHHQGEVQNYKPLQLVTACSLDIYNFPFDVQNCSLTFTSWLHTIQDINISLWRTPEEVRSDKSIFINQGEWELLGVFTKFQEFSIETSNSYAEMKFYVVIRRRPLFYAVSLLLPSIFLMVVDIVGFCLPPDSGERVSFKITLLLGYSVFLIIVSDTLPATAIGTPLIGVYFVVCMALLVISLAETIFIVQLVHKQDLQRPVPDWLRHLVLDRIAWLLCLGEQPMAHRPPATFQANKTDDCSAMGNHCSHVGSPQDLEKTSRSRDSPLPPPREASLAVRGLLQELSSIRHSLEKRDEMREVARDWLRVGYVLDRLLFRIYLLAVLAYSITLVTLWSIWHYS
T1 sequence (Q9JJ16 whole entry): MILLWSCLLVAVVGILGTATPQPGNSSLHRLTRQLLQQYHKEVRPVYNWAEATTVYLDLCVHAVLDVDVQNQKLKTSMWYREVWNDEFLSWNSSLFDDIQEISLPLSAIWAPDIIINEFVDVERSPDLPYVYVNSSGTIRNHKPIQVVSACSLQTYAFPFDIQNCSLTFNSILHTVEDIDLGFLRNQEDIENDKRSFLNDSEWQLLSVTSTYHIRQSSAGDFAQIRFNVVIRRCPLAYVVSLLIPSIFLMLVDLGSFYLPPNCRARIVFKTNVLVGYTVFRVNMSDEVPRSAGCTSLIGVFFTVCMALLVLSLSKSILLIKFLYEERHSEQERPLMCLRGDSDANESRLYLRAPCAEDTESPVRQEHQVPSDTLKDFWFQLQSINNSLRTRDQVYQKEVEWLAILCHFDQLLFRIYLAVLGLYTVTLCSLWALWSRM
Kind of assay: Inhibition of [3H]GR-65630 binding to rat cortical membrane 5-hydroxytryptamine 3 receptor.

The next assay deals with D(2) dopamine receptor (Rattus norvegicus, UniProt P61169). Kind of assay: Inhibition of [3H]- spiperone binding to rat brain Dopamine receptor D2.
Chain of D(2) dopamine receptor (P61169 whole entry): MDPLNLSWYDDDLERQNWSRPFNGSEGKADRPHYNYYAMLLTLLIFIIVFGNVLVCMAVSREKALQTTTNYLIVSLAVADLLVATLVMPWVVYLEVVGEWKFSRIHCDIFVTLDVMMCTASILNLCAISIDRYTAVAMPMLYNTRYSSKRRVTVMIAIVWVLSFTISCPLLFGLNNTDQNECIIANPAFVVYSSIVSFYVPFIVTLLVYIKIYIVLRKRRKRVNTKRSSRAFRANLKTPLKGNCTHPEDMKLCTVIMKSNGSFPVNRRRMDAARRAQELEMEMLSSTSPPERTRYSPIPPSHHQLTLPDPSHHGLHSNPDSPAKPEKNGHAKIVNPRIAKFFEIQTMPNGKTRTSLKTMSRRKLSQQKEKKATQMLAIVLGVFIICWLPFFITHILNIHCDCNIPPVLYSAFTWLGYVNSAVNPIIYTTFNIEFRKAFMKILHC

By IC50 is commonly meant the concentration needed to halve the response being measured. High values mean a need for much substance, low ones inhibition by little substance. For `CCN1CCN(C)C[C@@H](NC(=O)c2cc(Cl)c(NC)cc2OC)C1`, the IC50 in assay [1] is 2.9 nM; at D(2) dopamine receptor, 35 nM.

Take `CCN1CCN(C)CC(NC(=O)c2cc(Cl)c(N)nc2OC)C1` (stereo not drawn): the IC50 stood at 5.1 nM in assay [1] and 386 nM on D(2) dopamine receptor.

Consider `CCNc1nc(OC)c(C(=O)NC2CN(C)CCN(CC)C2)cc1Br` (stereo not drawn), for which the IC50 in assay [1] came out at 3.8 nM; at D(2) dopamine receptor it was 48 nM.

For the molecule `CCNc1nc(OC)c(C(=O)NC2CN(C)CCN(CC)C2)cc1Cl` (stereo not drawn), the values for the IC50 (in assay [1]; on D(2) dopamine receptor) were 2 nM and 76 nM, respectively.

As to `CCN1CCN(C)C[C@H](NC(=O)c2cc(Cl)c(NC)nc2OC)C1`, the figures for the IC50 (in assay [1]; on D(2) dopamine receptor) were 2.1 nM and 202 nM, respectively.

As to `CCN1CCN(C)C[C@@H](NC(=O)c2cc(Cl)c(NC)nc2OC)C1`, the IC50 in assay [1] is 1.6 nM; at D(2) dopamine receptor it was 18 nM.

For the molecule `CCN1CCN(C)C[C@@H](NC(=O)c2cc(Br)c(NC)nc2OC)C1`, the 50% inhibitory concentration (IC50) in assay [1] was found to be 1.1 nM; on D(2) dopamine receptor it was 12 nM.

Take `CCN1CCN(C)CC(NC(=O)c2cc(Br)c(NC)nc2OC)C1` (stereo not drawn): the results for the IC50 (in assay [1]; at D(2) dopamine receptor) were 1 nM and 23 nM, respectively.

As to `CCN1CCN(C)CC(NC(=O)c2cc(Br)c(N(C)C)nc2OC)C1` (stereo not drawn), the IC50 came out at 9.9 nM in assay [1] and 75 nM at D(2) dopamine receptor.

As for `CCN1CCN(C)C[C@H](NC(=O)c2cc(Br)c(NC)nc2OC)C1`, the IC50 was determined as 1.2 nM in assay [1] and 81 nM at D(2) dopamine receptor.

With `CCN1CCN(C)CC(NC(=O)c2cc(Cl)c(NC)nc2OC)C1` (stereo not drawn), the IC50 in assay [1] is 1.3 nM; at D(2) dopamine receptor it was 43 nM.

In the case of `CCN(CC)CCNC(=O)c1cc(Cl)c(N)cc1OC` [METOCLOPRAMIDE], in assay [1], the IC50 is 880 nM.
